Data as given in PubChem BioAssay (NCI).
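These data come from cells grown in 96-well plates and exposed to compound for 48 hours at five concentrations. Definition used: TGI = concentration required for complete inhibition of growth.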

What was measured:
Assay in all cases: growth of human tumour cells (NCI), 48 h
KM12 colon = tested on: KM12 colon
DU-145 prostate = tested on: DU-145 prostate
SNB-19 CNS = tested on: SNB-19 CNS
EKVX NSCLC = tested on: EKVX NSCLC
HCC-2998 colon = tested on: HCC-2998 colon
OVCAR-3 ovarian = tested on: OVCAR-3 ovarian
HOP-62 NSCLC = tested on: HOP-62 NSCLC
MDA-MB-435 = tested on: MDA-MB-435
SK-MEL-28 melanoma = tested on: SK-MEL-28 melanoma
IGROV1 ovarian = tested on: IGROV1 ovarian
MDA-N = tested on: MDA-N
NCI-H522 lung = tested on: NCI-H522 lung
786-0 renal = tested on: 786-0 renal
HS 578T breast = tested on: HS 578T breast
PC-3 prostate = tested on: PC-3 prostate
NCI-H460 lung = tested on: NCI-H460 lung
NCI/ADR-RES ovarian = tested on: NCI/ADR-RES ovarian
MOLT-4 leukemia = tested on: MOLT-4 leukemia
TK-10 renal = tested on: TK-10 renal
COLO 205 colon = tested on: COLO 205 colon
CCRF-CEM leukemia = tested on: CCRF-CEM leukemia
MDA-MB-231 breast = tested on: MDA-MB-231 breast
NCI-H226 lung = tested on: NCI-H226 lung
SK-MEL-5 melanoma = tested on: SK-MEL-5 melanoma
RXF 393 renal = tested on: RXF 393 renal
HCT-116 colon = tested on: HCT-116 colon
SF-268 CNS = tested on: SF-268 CNS
HL-60(TB) leukemia = tested on: HL-60(TB) leukemia
MALME-3M melanoma = tested on: MALME-3M melanoma
OVCAR-4 ovarian = tested on: OVCAR-4 ovarian
SW-620 colon = tested on: SW-620 colon
K-562 leukemia = tested on: K-562 leukemia
SNB-75 CNS = tested on: SNB-75 CNS
MCF7 breast = tested on: MCF7 breast
A549 NSCLC = tested on: A549 NSCLC
SF-295 CNS = tested on: SF-295 CNS
CAKI-1 renal = tested on: CAKI-1 renal
OVCAR-5 ovarian = tested on: OVCAR-5 ovarian
OVCAR-8 ovarian = tested on: OVCAR-8 ovarian
M14 melanoma = tested on: M14 melanoma
SF-539 CNS = tested on: SF-539 CNS
ACHN renal = tested on: ACHN renal
SR leukemia = tested on: SR leukemia
UACC-62 melanoma = tested on: UACC-62 melanoma
HCT-15 colon = tested on: HCT-15 colon
UACC-257 melanoma = tested on: UACC-257 melanoma
LOX IMVI melanoma = tested on: LOX IMVI melanoma
BT-549 breast = tested on: BT-549 breast
SK-OV-3 ovarian = tested on: SK-OV-3 ovarian
HT29 colon = tested on: HT29 colon
SN12C renal = tested on: SN12C renal
T-47D breast = tested on: T-47D breast
U251 CNS = tested on: U251 CNS
UO-31 renal = tested on: UO-31 renal
SK-MEL-2 melanoma = tested on: SK-MEL-2 melanoma
NCI-H23 lung = tested on: NCI-H23 lung
A498 renal = tested on: A498 renal
HOP-92 NSCLC = tested on: HOP-92 NSCLC
RPMI-8226 leukemia = tested on: RPMI-8226 leukemia

## CCOC(=O)C(Cc1ccc(OC(=O)OC(C)(C)C)cc1)NC(=O)OC(C)(C)C (stereo unspecified)
KM12 colon
  TGI: > 100 µM
DU-145 prostate
  TGI: 96 µM
SNB-19 CNS
  TGI: > 100 µM
EKVX NSCLC
  TGI: > 100 µM
HCC-2998 colon
  TGI: 76.6 µM
OVCAR-3 ovarian
  TGI: > 100 µM
HOP-62 NSCLC
  TGI: > 100 µM
MDA-MB-435
  TGI: > 100 µM
SK-MEL-28 melanoma
  TGI: > 100 µM
IGROV1 ovarian
  TGI: > 100 µM
MDA-N
  TGI: > 100 µM
NCI-H522 lung
  TGI: > 100 µM
786-0 renal
  TGI: > 100 µM
HS 578T breast
  TGI: > 100 µM
PC-3 prostate
  TGI: > 100 µM
NCI-H460 lung
  TGI: > 100 µM
NCI/ADR-RES ovarian
  TGI: > 100 µM
MOLT-4 leukemia
  TGI: 56.7 µM
TK-10 renal
  TGI: > 100 µM
COLO 205 colon
  TGI: > 100 µM
CCRF-CEM leukemia
  TGI: > 100 µM
MDA-MB-231 breast
  TGI: > 100 µM
NCI-H226 lung
  TGI: > 100 µM
SK-MEL-5 melanoma
  TGI: > 100 µM
RXF 393 renal
  TGI: > 100 µM
HCT-116 colon
  TGI: > 100 µM
SF-268 CNS
  TGI: > 100 µM
HL-60(TB) leukemia
  TGI: 80.1 µM
MALME-3M melanoma
  TGI: > 100 µM
OVCAR-4 ovarian
  TGI: > 100 µM
SW-620 colon
  TGI: > 100 µM
K-562 leukemia
  TGI: > 100 µM
SNB-75 CNS
  TGI: 62.6 µM
MCF7 breast
  TGI: > 100 µM
A549 NSCLC
  TGI: > 100 µM
SF-295 CNS
  TGI: > 100 µM
CAKI-1 renal
  TGI: > 100 µM
OVCAR-5 ovarian
  TGI: > 100 µM
OVCAR-8 ovarian
  TGI: > 100 µM
M14 melanoma
  TGI: 79.9 µM
SF-539 CNS
  TGI: > 100 µM
ACHN renal
  TGI: > 100 µM
SR leukemia
  TGI: 67.5 µM
UACC-62 melanoma
  TGI: > 100 µM
HCT-15 colon
  TGI: > 100 µM
UACC-257 melanoma
  TGI: 54.3 µM
LOX IMVI melanoma
  TGI: > 100 µM
BT-549 breast
  TGI: > 100 µM
SK-OV-3 ovarian
  TGI: > 100 µM
HT29 colon
  TGI: > 100 µM
SN12C renal
  TGI: > 100 µM
T-47D breast
  TGI: 70.7 µM
U251 CNS
  TGI: > 100 µM
UO-31 renal
  TGI: > 100 µM
SK-MEL-2 melanoma
  TGI: > 100 µM
NCI-H23 lung
  TGI: > 100 µM

## COc1c(-c2nc3nc(N4CCN(C)CC4)ccc3[nH]2)cc(OC)c2c1nc(COC(C)=O)n2C
KM12 colon
  TGI: > 100 µM
DU-145 prostate
  TGI: > 100 µM
SNB-19 CNS
  TGI: > 100 µM
EKVX NSCLC
  TGI: > 100 µM
OVCAR-3 ovarian
  TGI: > 100 µM
HOP-62 NSCLC
  TGI: > 100 µM
MDA-MB-435
  TGI: > 100 µM
IGROV1 ovarian
  TGI: > 100 µM
MDA-N
  TGI: > 100 µM
NCI-H522 lung
  TGI: > 100 µM
786-0 renal
  TGI: > 100 µM
HS 578T breast
  TGI: > 100 µM
PC-3 prostate
  TGI: > 100 µM
A498 renal
  TGI: > 100 µM
NCI/ADR-RES ovarian
  TGI: > 100 µM
MOLT-4 leukemia
  TGI: > 100 µM
TK-10 renal
  TGI: 0.0263 µM
COLO 205 colon
  TGI: > 100 µM
MDA-MB-231 breast
  TGI: > 100 µM
NCI-H226 lung
  TGI: > 100 µM
SK-MEL-5 melanoma
  TGI: > 100 µM
RXF 393 renal
  TGI: > 100 µM
HCT-116 colon
  TGI: > 100 µM
SF-268 CNS
  TGI: > 100 µM
MALME-3M melanoma
  TGI: > 100 µM
OVCAR-4 ovarian
  TGI: > 100 µM
K-562 leukemia
  TGI: > 100 µM
MCF7 breast
  TGI: > 100 µM
A549 NSCLC
  TGI: > 100 µM
SF-295 CNS
  TGI: > 100 µM
CAKI-1 renal
  TGI: > 100 µM
OVCAR-5 ovarian
  TGI: > 100 µM
OVCAR-8 ovarian
  TGI: > 100 µM
M14 melanoma
  TGI: > 100 µM
ACHN renal
  TGI: > 100 µM
UACC-62 melanoma
  TGI: > 100 µM
HCT-15 colon
  TGI: > 100 µM
UACC-257 melanoma
  TGI: > 100 µM
LOX IMVI melanoma
  TGI: > 100 µM
BT-549 breast
  TGI: > 100 µM
SK-OV-3 ovarian
  TGI: > 100 µM
HT29 colon
  TGI: > 100 µM
HOP-92 NSCLC
  TGI: > 100 µM
SN12C renal
  TGI: > 100 µM
T-47D breast
  TGI: > 100 µM
U251 CNS
  TGI: > 100 µM
UO-31 renal
  TGI: > 100 µM
SK-MEL-2 melanoma
  TGI: > 100 µM
NCI-H23 lung
  TGI: > 100 µM

## Cc1ccc(C(=O)Nc2ccc(CP(=O)(O)O)cc2CP(=O)(O)O)cc1NC(=O)Nc1cc(C(=O)Nc2ccc(CP(=O)(O)O)cc2CP(=O)(O)O)ccc1C
KM12 colon
  TGI: > 100 µM
DU-145 prostate
  TGI: > 100 µM
SNB-19 CNS
  TGI: > 100 µM
EKVX NSCLC
  TGI: > 100 µM
HCC-2998 colon
  TGI: > 100 µM
OVCAR-3 ovarian
  TGI: > 100 µM
HOP-62 NSCLC
  TGI: > 100 µM
MDA-MB-435
  TGI: > 100 µM
SK-MEL-28 melanoma
  TGI: > 100 µM
IGROV1 ovarian
  TGI: > 100 µM
MDA-N
  TGI: > 100 µM
NCI-H522 lung
  TGI: > 100 µM
786-0 renal
  TGI: > 100 µM
HS 578T breast
  TGI: > 100 µM
PC-3 prostate
  TGI: > 100 µM
NCI-H460 lung
  TGI: > 100 µM
A498 renal
  TGI: > 100 µM
NCI/ADR-RES ovarian
  TGI: > 100 µM
TK-10 renal
  TGI: > 100 µM
COLO 205 colon
  TGI: > 100 µM
CCRF-CEM leukemia
  TGI: > 100 µM
MDA-MB-231 breast
  TGI: > 100 µM
NCI-H226 lung
  TGI: > 100 µM
SK-MEL-5 melanoma
  TGI: > 100 µM
RXF 393 renal
  TGI: > 100 µM
HCT-116 colon
  TGI: > 100 µM
SF-268 CNS
  TGI: > 100 µM
HL-60(TB) leukemia
  TGI: > 100 µM
MALME-3M melanoma
  TGI: > 100 µM
OVCAR-4 ovarian
  TGI: > 100 µM
SW-620 colon
  TGI: > 100 µM
K-562 leukemia
  TGI: > 100 µM
SNB-75 CNS
  TGI: > 100 µM
MCF7 breast
  TGI: > 100 µM
A549 NSCLC
  TGI: > 100 µM
SF-295 CNS
  TGI: > 100 µM
CAKI-1 renal
  TGI: > 100 µM
OVCAR-5 ovarian
  TGI: > 100 µM
RPMI-8226 leukemia
  TGI: > 100 µM
OVCAR-8 ovarian
  TGI: > 100 µM
M14 melanoma
  TGI: > 100 µM
SF-539 CNS
  TGI: > 100 µM
ACHN renal
  TGI: > 100 µM
UACC-62 melanoma
  TGI: > 100 µM
HCT-15 colon
  TGI: > 100 µM
UACC-257 melanoma
  TGI: > 100 µM
LOX IMVI melanoma
  TGI: > 100 µM
BT-549 breast
  TGI: > 100 µM
SK-OV-3 ovarian
  TGI: > 100 µM
HT29 colon
  TGI: > 100 µM
SN12C renal
  TGI: > 100 µM
T-47D breast
  TGI: > 100 µM
U251 CNS
  TGI: > 100 µM
UO-31 renal
  TGI: > 100 µM
SK-MEL-2 melanoma
  TGI: > 100 µM
NCI-H23 lung
  TGI: > 100 µM
